The values that follow are results of earlier work, collected in patent US12168054B2 (SYNDAX PHARMACEUTICALS, INC., priority 2017, dated 2024).

The conditions of data set [1]: in vivo.
In a further data set the test system is histone acetylation. Conditions: following the administration of entinostat.

For the molecule `Nc1ccccc1NC(=O)c1ccc(CNC(=O)OCc2cccnc2)cc1` [Entinostat, N-(2-aminophenyl)-4-[N-(pyridine-3-yl)methoxycarbonylamino-methyl]-benzamide], in data set [1], the half-life entry is on record as “about 100 hours”. In addition, the “persistence of changes in histone acetylation following administration” value with histone acetylation is “persist for several weeks”.
